# According to patent US20250171435A1, “Carbon Linked BCL Inhibitors and Senolytic Compounds and Uses Thereof” (Rubedo Life Sciences, Inc., priority 2023, published 2025):
# Where two headings read alike, the source gives them in different places.
# Key:
# [1] = test system: senescent A549 cells; test: Senescence assay: viability of senescent A549 cells (CellTiter-Glo or XTT); assay type: cell-based; details: chemotherapy-induced senescent A549 cells, compounds incubated 24-72 hours, viability relative to untreated control, read-out: A549_SEN IC50 (Absolute IC50 average)
# Experimental: (§1) Cells were maintained in DMEM media (high glucose, 4 mM L-glutamine, no sodium pyruvate) supplemented with 10% fetal bovine serum in a humidified incubator at 37° C. with 5% carbon dioxide. Senescence was induced via treatment with a sublethal concentration of chemotherapy (bleomycin, gemcitabine, doxorubicin, 5-fluorouridine, mitomycin C), followed by a rest period without chemotherapy similarly to what is reported by others in the field (e.g., Aoshiba et al., 2003 Eur Respir J 22:436-443). Senescence was qualified by low EdU (5-ethynyl-2′-deoxyuridine) incorporation and high SA-β-Gal (senescence-associated beta-galactosidase) staining compared to proliferating untreated cells. Senescent cells were plated into 96-well plates at a density of 5-15,000 cells/well. The next day, compounds were added in duplicate across ten different concentrations spanning roughly four Log 10 units. Cells were incubated with the compounds for 24-72 hours, at which point viability was quantified using CellTiter-Glo (Promega) or XTT (R&D Systems). The viability for treated cells was determined relative to untreated control cells. The log of the compound concentration vs. normalized mean viability was fit to a four parameters Hill function with variable slope. The bottom was constrained to be greater than zero. The X mean value for Y=50 was interpolated to determine the absolute IC50. The results in Table 1 indicate that many of the compounds are active in cells and can induce a dose dependent decrease in the viability of senescent A549 and IMR90 cells.
# [2] = test system: senescent IMR90 cells; test: Senescence assay: viability of senescent IMR90 cells (CellTiter-Glo or XTT); assay type: cell-based; details: Homo sapiens, IMR-90; chemotherapy-induced senescent IMR90 cells; compounds incubated 24-72 hours; viability relative to untreated control; read-out: IMR90_SEN IC50 (Absolute IC50 average)
# Experimental: as §1
SMILES,IC50 ([1]; Homo sapiens) [nM],IC50 [1] [nM],IC50 [2] [nM]
"Cc1cc(C(=O)c2ccc(-c3cnn(CC45CC6(OCCN7CCOCC7)C[C@](C)(C4)C[C@](C)(C5)C6)c3C)c(C(=O)NS(=O)(=O)CCCCCC(=O)N[C@H](C(=O)N3C[C@H](O)C[C@H]3C(=O)N[C@@H](C)c3ccc(-c4scnc4C)cc3)C(C)(C)C)n2)nnc1Nc1nc2ccccc2s1 [Compound 4, (2S,4R)-1-[(2S)-2-[6-({6-[6-(1,3-benzothiazol-2-ylamino)-5-methylpyridazine-3-carbonyl]-3-(1-{[(1S,3R,5S,7R)-3,5-dimethyl-7-[2-(morpholin-4-yl)ethoxy]adamantan-1-yl]methyl}-5-methylpyrazol-4-yl)pyridin-2-yl}formamidosulfonyl)hexanamido]-3,3-dimethylbutanoyl]-4-hydroxy-N-[(1S)-1-[4-(4-methyl-1,3-thiazol-5-yl)phenyl]ethyl]pyrrolidine-2-carboxamide]",–,100 to 1000,–
"C#Cc1ccc(CNC(=O)[C@@H]2C[C@H](O)CN2C(=O)[C@@H](NC(=O)CCCCCS(=O)(=O)NC(=O)c2nc(C(=O)c3cc(C)c(Nc4nc5ccccc5s4)nn3)ccc2-c2cnn(CC34CC5(C)CC(C)(C3)CC(OCCN3CCOCC3)(C5)C4)c2C)C(C)(C)C)cc1 [Compound 6, (2S,4R)-1-[(2S)-2-[6-({6-[6-(1,3-benzothiazol-2-ylamino)-5-methylpyridazine-3-carbonyl]-3-(1-{[(1S,3R,5S,7R)-3,5-dimethyl-7-[2-(morpholin-4-yl)ethoxy]adamantan-1-yl]methyl}-5-methylpyrazol-4-yl)pyridin-2-yl}formamidosulfonyl)hexanamido]-3,3-dimethylbutanoyl]-N-[(4-ethynylphenyl)methyl]-4-hydroxypyrrolidine-2-carboxamide]",10 to 100,–,–
"Cc1cc(C(=O)c2ccc(-c3cnn(CC45CC6(OCCN7CCOCC7)C[C@](C)(C4)C[C@](C)(C5)C6)c3C)c(C(=O)NS(=O)(=O)CCCCCC(=O)N[C@H](C(=O)N3C[C@@H](O)C[C@H]3C(=O)N[C@@H](C)c3ccc(-c4scnc4C)cc3)C(C)(C)C)n2)nnc1Nc1nc2ccccc2s1 [Compound 5, (2S,4S)-1-[(2S)-2-[6-({6-[6-(1,3-benzothiazol-2-ylamino)-5-methylpyridazine-3-carbonyl]-3-(1-{[(1S,3R,5S,7R)-3,5-dimethyl-7-[2-(morpholin-4-yl)ethoxy]adamantan-1-yl]methyl}-5-methylpyrazol-4-yl)pyridin-2-yl}formamidosulfonyl)hexanamido]-3,3-dimethylbutanoyl]-4-hydroxy-N-[(1S)-1-[4-(4-methyl-1,3-thiazol-5-yl)phenyl]ethyl]pyrrolidine-2-carboxamide]",–,100 to 1000,–

# Now from value to compound, other results behind:
IC50 ([1]; Homo sapiens) [nM],SMILES,IC50 [1] [nM],IC50 [2] [nM]
100 to 1000,"Cc1cc(C(=O)c2nc(C(=O)O)c(CCCOc3ccc(C#CCN(C)C)cc3F)s2)nnc1Nc1nc2ccccc2s1 [Compound 3, 2-(6-(benzo[d]thiazol-2-ylamino)-5-methylpyridazine-3-carbonyl)-5-(3-(4-(3-(dimethylamino)prop-1-yn-1-yl)-2-fluorophenoxy)propyl) thiazole-4-carboxylic acid]",–,1000 to 10000
100 to 1000,"Cc1cc(C(=O)c2ccc(-c3cnn(CC45CC6(C)CC(C)(C4)CC(OCCN4CCOCC4)(C6)C5)c3C)c(C(=O)NS(=O)(=O)c3ccc(N4CC(C(=O)N[C@H](C(=O)N5C[C@H](O)C[C@H]5C(=O)N[C@H](C)c5ccc(-c6scnc6C)cc5)C(C)(C)C)C4)cc3)n2)nnc1Nc1nc2ccccc2s1 [Compound 7, 6-[6-(1,3-benzothiazol-2-ylamino)-5-methylpyridazine-3-carbonyl]-3-(1-{[(1S,3R,5S,7R)-3,5-dimethyl-7-[2-(morpholin-4-yl)ethoxy]adamantan-1-yl]methyl}-5-methylpyrazol-4-yl)-N-[4-(3-{[(2S)-1-[(2S,4R)-4-hydroxy-2-{[(1S)-1-[4-(4-methyl-1,3-thiazol-5-yl)phenyl]ethyl]carbamoyl}pyrrolidin-1-yl]-3,3-dimethyl-1-oxobutan-2-yl]carbamoyl}azetidin-1-yl)benzenesulfonyl]pyridine-2-carboxamide]",–,–
10 to 100,"Cc1cc(C(=O)c2ccc(-c3cnn(CC45CC6(C)CC(C)(C4)CC(OCCN4CCOCC4)(C6)C5)c3C)c(C(=O)O)n2)nnc1Nc1nc2ccccc2s1 [Compound 2, 6-(6-(benzo[d]thiazol-2-ylamino)-5-methylpyridazine-3-carbonyl)-3-(1-(((1r,3R,5S,7s)-3,5-dimethyl-7-(2-morpholinoethoxy)adamantan-1-yl)methyl)-5-methyl-1H-pyrazol-4-yl)picolinic acid]",–,10 to 100
1000 to 10000,"Cc1cc(C(=O)c2ccc(-c3cnn(CC45CC6(C)CC(C)(C4)CC(OCCO)(C6)C5)c3C)c(C(=O)O)n2)nnc1Nc1nc2ccccc2s1 [Compound 1, 6-(6-(benzo[d]thiazol-2-ylamino)-5-methylpyridazine-3-carbonyl)-3-(1-(((1r,3s,5R,7S)-3-(2-hydroxyethoxy)-5,7-dimethyladamantan-1-yl)methyl)-5-methyl-1H-pyrazol-4-yl)picolinic acid]",–,100 to 1000
